Measurements as given in paper PMC11292009, “Mapping protein binding sites by photoreactive fragment pharmacophores” (Communications Chemistry, 2024).
“And” between values parts separate entries of the source, which are not always exact repeats. Equal values may be shown once.

Legend:
Format in all cases: binding
[1] = tested on: CA, Lyo, Myo, BRD4-BD1, KRas G12D, STAT5B-NTD; assay: Intact MS labeling compared over all protein targets; conditions: for Labeling of the other protein targets (vs. preferred target): each of the other targets; for Number of targets labeled in higher than 10% amount: of the six protein targets
Experimental: Using a plate-based format with one fragment per well, each fragment was incubated with the target proteins for 15 min to allow for the formation of non-covalent interactions. The plate was then irradiated at 302 or 365 nm for 10 min to enable the bound fragments to crosslink to the protein[26]. Finally, the results were directly analyzed from the plate using intact protein mass spectrometry by observing the mass additions that correspond to successful labeling (Fig. 2c, for labeling % values see Supplementary data). The library was first characterized against three benchmark proteins like carbonic anhydrase (CA), lysozyme (Lyo), and myoglobin (Myo).
The PhP library was screened against BRD4-BD1 and KRas^G12D as follows. Using a Labcyte Echo® 555 Liquid Handler, 150 nL of fragment solution (20 mM) was transferred into a Greiner 384 low-volume plate (white) to prepare the probe plate. The probe plate was placed on ice. 15 μL of protein stock solution (1 μM BRD4-BD1 (GSK/GenScript) or KRas^G12D (GSK/GenScript) in PBS buffer) was dispensed into wells containing fragments. The plate was left on ice for 15 min for incubation, then irradiated at 302 nm for 10 min, and centrifuged (1000 rpm, 1 min) to remove any bubbles. The plate was then analyzed by LCMS-TOF mass spectrometry (Agilent 1200 series liquid chromatography with Agilent Bio-HPLC PLRP-S (1000 Å, 5 µm × 50 mm × 1.0 mm, PL1312-1502) reverse phase HPLC column at 70 °C equipped with an Agilent G6224 time-of-flight (ToF), see Supplementary Note 2 for the full protocols). The deconvoluted spectra were analyzed using R Studio software.
During the analysis, the column temperature was maintained at a constant 60 °C, and a sample volume of 3 µL was injected for each analysis. Data acquisition was conducted in positive ion mode within the m/z 100–2000 (mass-to-charge ratio) range. For the full protocol and spectra of the hits, see Supplementary Note 2.

STAT5B-NTD [2] = tested on: T1, STAT5B-NTD; assay: Intact MS labeling screen, STAT5B-NTD conjugated with photocatalyst Ir-G2-PEG3-COOH (450 nm); conditions: 450 nm 10 min;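 also: 0.14 µL of 100 mM DMSO fragment stock added to the conjugate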
T1 construct: His-SUMO (N, cleaved yes); made in house; host or cells: E. coli BL21 RILP
In short: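 Ir-G2-PEG3-COOH photocatalyst (10 eq) activated 30 min with EDC/NHS/BOP, then conjugated to STAT5B-NTD (7 µM) overnight at RT or 1 h at 37 °C in dark. PhP added, 1 h dark, then 450 nm irradiation 10 min at 4 °C; labeling read by intact LC-MS, positive ion mode, m/z 100–2000.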

BRD4-BD1 = tested on: T2, BRD4-BD1; assay: Intact MS photoaffinity labeling screen, BRD4-BD1 (302 nm, LCMS-TOF); conditions: for MS labeling percentage, BRD4: BRD4-BD1, 302 nm 10 min; for experimental hit status BRD4-BD1: 0/1 flag
T2 construct: screened the PhP library against the first bromodomain of BRD4 (BRD4-BD1); purchased GSK/GenScript
In short: (§1)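 Labeling detected as mass additions in deconvoluted intact-protein LCMS-TOF spectra. Protein at 1 μM in PBS was first mixed with one fragment per well on ice for 15 min, followed by 10 min UV exposure at 302 nm.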

KRas^G12D = tested on: T3, KRas^G12D; assay: Intact MS photoaffinity labeling screen, KRas G12D (302 nm, LCMS-TOF); conditions: for MS labeling percentage, KRas: KRas G12D, 302 nm 10 min; for experimental hit status KRAS-G12D: 0/1 flag
T3 construct: purchased GSK/GenScript
In short: as §1

myoglobin (Myo) = assay: Intact protein MS photoaffinity labeling screen, myoglobin; conditions: intact protein MS after 10 min irradiation
In short: (§2)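 Labeling % derives from mass additions observed by intact protein MS on each well, measured without transfer from the plate; fragments, one per well, had been pre-incubated 15 min with protein.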

lysozyme (Lyo) = assay: Intact protein MS photoaffinity labeling screen, lysozyme; conditions: intact protein MS after 10 min irradiation
In short: as §2

[3] = tested on: carbonic anhydrase II (CA); assay: Intact protein MS photoaffinity labeling screen, carbonic anhydrase; conditions: intact protein MS after 10 min irradiation
In short: as §2

STAT5B-NTD [4] = tested on: T1, STAT5B-NTD; assay: Intact MS photoaffinity labeling screen, STAT5B-NTD (365 nm, UHPLC-MS); conditions: for MS labeling percentage, STAT5B: STAT5B-NTD, 365 nm 10 min, no photocatalyst; for experimental hit status STAT5B-NTD: 0/1 flag;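 as to MS labeling percentage, STAT5B: 0.17 µL of 100 mM DMSO fragment stock added to the protein sample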
In short: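 UV irradiation at 365 nm for 10 min at 4 °C. Labeling read by intact-protein UHPLC-MS, positive ion mode, m/z 100–2000.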

[5] = PhP library sheet "PhP", binary flag printed as 0 or 1, key not given
[6] = experimental hit status flag (0/1)
[7] = hit flag 1/0, sheet PhP, photoaffinity labeling screen
[8] = sheet PhP, experimental hit status flag given as 0 or 1

| SMILES | MS labeling percentage, CA [3] [%] | Labeling of the other protein targets (vs. preferred target) [1] | MS labeling percentage, STAT5B+photocat (STAT5B-NTD [2]) [%] | MS labeling percentage, BRD4 (BRD4-BD1) [%] | BRD4-BD1 (experimental hit status) (BRD4-BD1; [5]) | MS labeling percentage, KRas (KRas^G12D) [%] | KRAS-G12D (experimental hit status) (KRas^G12D; [5]) | MS labeling percentage, Myo (myoglobin (Myo)) [%] | MS labeling percentage, Lyo (lysozyme (Lyo)) [%] | STAT5B-NTD (experimental hit status) (STAT5B-NTD [4]; [5]) | MS labeling percentage, STAT5B (STAT5B-NTD [4]) [%] | Labeling efficiency over all protein targets (mean ± spread) [1] [%] | experimental hit status BRD4-BD1 (BRD4-BD1) | experimental hit status KRAS-G12D (KRas^G12D) | experimental hit status STAT5B-NTD (STAT5B-NTD [4]) | other results |
| --- | --- | --- | --- | --- | --- | --- | --- | --- | --- | --- | --- | --- | --- | --- | --- | --- |
| CC1(CCC(=O)NC2CCN(c3ccc(F)cc3)CC2)N=N1 [PhP012, N1=NC1(C)CCC(=O)NC2CCN(CC2)c3ccc(F)cc3] | 0.9 | > 3% and < 3% | 1 | 2.8 | – | 15.8 | – | 1 | 2.6 | – | 0 | – | – | – | – | BRD4-BD1 (BRD4-BD1; [6]): 0; KRAS-G12D (KRas^G12D; [6]): 0; STAT5B-NTD (STAT5B-NTD [4]; [6]): 0 |
| CC1(CCC(=O)NCc2cc3ccccc3[nH]2)N=N1 [PhP040, N1=NC1(C)CCC(=O)NCc(c2)[nH]c(c23)cccc3] | 0.7 | > 3% and < 3% | 74 | 2.1 | – | 1.9 | – | 0.5 | 0.3 | – | 75 | – | – | – | – | BRD4-BD1 (experimental hit status) (BRD4-BD1; [7]): 0; KRAS-G12D (experimental hit status) (KRas^G12D; [7]): 0; STAT5B-NTD (experimental hit status) (STAT5B-NTD [4]; [7]): 0 |
| CC1(CCC(=O)NCCNS(=O)(=O)c2cccc([N+](=O)[O-])c2)N=N1 [PhP035, N1=NC1(C)CCC(=O)NCCNS(=O)(=O)c2cccc(c2)N(=O)=O] | 1.8 | – | 9.7 | 3.7 | – | 2 | – | 1.3 | 0.3 | – | 0 | 1.5 ± 1.2 | 0 | 0 | 0 | – |
| COc1ccc(CCNC(=O)CCC2(C)N=N2)c2ccccc12 [PhP034, c1cccc(c12)c(OC)ccc2CCNC(=O)CCC3(C)N=N3] | 4.7 | – | 1.1 | 10.6 | – | 67.8 | – | 1.7 | 1.7 | – | 0 | – | 0 | 0 | 0 | Number of targets labeled in higher than 10% amount [1]: two |
| Cc1cccc(-c2cnc(CNC(=O)CCC3(C)N=N3)[nH]2)c1 [PhP037, Cc1cccc(c1)-c2cnc([nH]2)CNC(=O)CCC3(C)N=N3] | 0.9 | – | 1.5 | 4.8 | – | 11.2 | – | 1.4 | 0 | – | 2 | 3.4 ± 3.8 | 0 | 0 | 0 | – |
| COc1ccc(OC)c(C(O)C(C)NC(=O)CCC2(C)N=N2)c1 (stereo not drawn) [PhP038, COc1ccc(OC)c(c1)C(O)C(C)NC(=O)CCC2(C)N=N2] | 3.6 | – | 5.1 | 25.5 | – | 62.1 | – | 1.1 | 3.6 | – | 4.8 | – | – | – | – | Number of targets labeled in higher than 10% amount [1]: two; BRD4-BD1 (experimental hit status) (BRD4-BD1; [7]): 0; KRAS-G12D (experimental hit status) (KRas^G12D; [7]): 0; STAT5B-NTD (experimental hit status) (STAT5B-NTD [4]; [7]): 0 |

Continued, in another order:

| MS labeling percentage, CA [3] [%] | SMILES | Labeling of the other protein targets (vs. preferred target) [1] | MS labeling percentage, STAT5B+photocat (STAT5B-NTD [2]) [%] | MS labeling percentage, BRD4 (BRD4-BD1) [%] | BRD4-BD1 (experimental hit status) (BRD4-BD1; [5]) | MS labeling percentage, KRas (KRas^G12D) [%] | KRAS-G12D (experimental hit status) (KRas^G12D; [5]) | MS labeling percentage, Myo (myoglobin (Myo)) [%] | MS labeling percentage, Lyo (lysozyme (Lyo)) [%] | STAT5B-NTD (experimental hit status) (STAT5B-NTD [4]; [5]) | MS labeling percentage, STAT5B (STAT5B-NTD [4]) [%] | Labeling efficiency over all protein targets (mean ± spread) [1] [%] | experimental hit status BRD4-BD1 (BRD4-BD1) | experimental hit status KRAS-G12D (KRas^G12D) | experimental hit status STAT5B-NTD (STAT5B-NTD [4]) | other results |
| --- | --- | --- | --- | --- | --- | --- | --- | --- | --- | --- | --- | --- | --- | --- | --- | --- |
| 0 | CCCc1nn(C)c(C(N)=O)c1NC(=O)CCC1(C)N=N1 [PhP082, CCCc1nn(C)c(C(=O)N)c1NC(=O)CCC2(C)N=N2] | > 0.5% and < 0.5% | 2.4 | 0.2 | 0 | 0 | 0 | 52.9 | 0 | 0 | 0 | – | – | – | – | – |
| 0.3 | Cc1nc(CCNC(=O)CCC2(C)N=N2)sc1C [PhP092, Cc1nc(sc1C)CCNC(=O)CCC2(C)N=N2] | > 1% and < 1% | 0.8 | 0.5 | 0 | 0.1 | 0 | 0.1 | 35.6 | 0 | 0 | – | – | – | – | – |
| 3 | Cc1noc(C)c1-c1ccc(CNC(=O)CCC2(C)N=N2)cc1 [PhP080, Cc1noc(C)c1-c2ccc(cc2)CNC(=O)CCC3(C)N=N3] | – | 21.1 | – | 0 | 3.2 | 0 | 3 | 7.7 | 0 | 1 | 3.6 ± 2.2 | – | – | – | – |
| 0.3 | Cn1cnnc1CCNC(=O)CCC1(C)N=N1 [PhP063, Cn1cnnc1CCNC(=O)CCC2(C)N=N2] | – | 0.4 | 49.7 | – | 0.8 | – | 0.3 | 0 | – | 0 | – | – | – | – | BRD4-BD1 (experimental hit status) (BRD4-BD1; [8]): 0; KRAS-G12D (experimental hit status) (KRas^G12D; [8]): 0; STAT5B-NTD (experimental hit status) (STAT5B-NTD [4]; [8]): 0 |
